Laboratory results published in patent publication US6562853B2, “2,5-dioxo-3-(2-propynyl)imidazolidin-1-ylmethyl 2,2-dimethyl-3-(alenyl) cyclopropane carboxylate compounds and pesticidal methods and compositions utilizing the same” (Sumitomo Chemical Company, Limited, priority 2001, dated 2003).

How the values were obtained:
[1] = tested on: adult female common mosquitoes; test: Knockdown of common mosquitoes by oily formulation sprayed into 70 cm cubic chamber (Test Example 3); assay type: in vivo, common mosquito (Culex pipiens pallens); conditions: 0.00625% oily formulation, 0.7 ml sprayed into 70 cm cubic chamber; 10 adult female common mosquitoes; counted over 10 minutes
From the text: Three (3) 0.00625% oily formulations were produced with the following pesticidal compounds: […]
In the compound encompassed by formula (A), the weight ratio of trans isomers thereof to the cis isomers thereof is 8:2. The 0.00625% oily formulations were produced by dissolving, respectively, 0.00625 parts of the above pesticidal compounds in 10 parts of dichloromethane and by mixing each of the resulting mixture with 89.99375 parts of deodorized kerosene.
Ten (10) adult female common mosquitoes were released in each of the cubic chambers having a side length of 70 cm. Seven-tenths milliliters (0.7 ml) of the 0.00625% oily formulations were then sprayed, respectively, into each of the chambers from the side windows of the chambers, utilizing spray guns set to a pressure of 8.8×10^4 Pa. The numbers of knockdowned common mosquitoes were counted periodically over 10 minutes. The times utilized to knockdown half of the tested common mosquitoes (KT50) were determined from the number of knockdowned common mosquitoes.

[2] = tested on: Adult houseflies; test: Knockdown rate of houseflies in plastic cup after direct spray of oily formulation (Test Example 2); assay type: in vivo, housefly (Musca domestica); conditions: 0.1% oily formulation (table), 0.5 ml sprayed from about 30 cm above cup; 10 adult houseflies; counted 10 seconds thereafter
Method: A 0.1% oily formulation was produced by dissolving 0.1 part of the present invention compound 1 in 10 parts of dichloromethane and by mixing the resulting mixture with 89.9 parts of deodorized kerosene.
Ten (10) adult houseflies (5 of each male and female) were placed in a 650 ml plastic cup. The opening of the plastic cup was covered with a nylon mesh to confine the houseflies to the plastic cup. The plastic cup was placed on top of a metal screen placed in a metal chamber having the dimensions 46 cm×46 cm×70 cm. Five-tenths milliliters (0.5 ml) of the […] oily formulation was then sprayed from about 30 cm above the top area of the plastic cup, utilizing a spray gun set to a pressure of 8.8×10^4 Pa. The number of knockdowned houseflies were counted 10 seconds thereafter. The knockdown rate was determined from the number of knockdowned houseflies achieved. The knockdown rate was 95%.

[3] = tested on: Adult houseflies; test: Knockdown of houseflies by oily formulation sprayed into 70 cm cubic chamber (Test Example 1); assay type: in vivo, housefly (Musca domestica); conditions: 0.025% oily formulation, 0.7 ml sprayed into 70 cm cubic chamber; 5 male and 5 female adult houseflies; counted over 10 minutes
Method: A 0.025% oily formulation was produced by dissolving 0.025 parts of the present invention compound 1 in 10 parts of dichloromethane and by mixing the resulting mixture with 89.975 parts of deodorized kerosene.
Adult houseflies (5 of each male and female) were released in a cubic chamber having a side length of 70 cm. Seven-tenths milliliters (0.7 ml) of the 0.025% oily formulation was then sprayed into the chamber from a side window of the chamber, utilizing a spray gun set to a pressure of 8.8×10^4 Pa. The number of knockdowned houseflies was counted periodically over 10 minutes. The time utilized to knockdown half of the tested houseflies (KT50) was determined from the number of knockdowned houseflies. The KT50 was 2.3 minutes.

In the case of C#CCN1CC(=O)N(COC(=O)C2C(C=C(C)C)C2(C)C)C1=O (single isomer, unassigned) [Compound c, reference compound], the “KT50 (time utilized to knockdown half of the tested common mosquitoes)” value [1] is reported as 2.9 min.
With C#CCN1CC(=O)N(COC(=O)[C@@H]2[C@@H](/C=C\C)C2(C)C)C1=O [Present invention compound 1, 2,5-dioxo-3-(2-propynyl)imidazolidin-1-ylmethyl (1R)-trans-2,2-dimethyl-3-((Z)1-propenyl)cyclopropanecarboxylate] the “KT50 (time utilized to knockdown half of the tested common mosquitoes)” value [1] was 0.99 min, the Knockdown rate [2] was 95% and the “KT50 (time utilized to knockdown half of the tested houseflies)” value [3] was 2.3 min.
With C#CCN1CC(=O)N(COC(=O)[C@@H]2[C@H](/C=C\C)C2(C)C)C1=O [Present invention compound 3, 2,5-dioxo-3-(2-propynyl)imidazolidin-1-ylmethyl (1R)-cis-2,2-dimethyl-3-((Z)1-propenyl)cyclopropanecarboxylate] the “KT50 (time utilized to knockdown half of the tested common mosquitoes)” value [1] was 1.4 min.
